From patent US5147855A, “Conjugates of VIP and active fragments thereof with hydrophobic moieties and topical compositions for male impotence” (Yeda Research and Development Co. Ltd., priority 1988, dated 1992)
“And” between values parts separate entries of the source, which are not always exact repeats. Equal entries are not always repeated. No end group written: not given here. NH = not defined here; oleyl = oleyl moiety

Key:
[1] = test system: sexual behaviour of male rats; experiment: Sexual behaviour of castrated male rats, topical application of several materials (Table III); assay type: in vivo, rat; parameters: key to Ejaculations (E): E = Ejaculations; conditions: for Ejaculations (E) / No. Ob. / Int. Latency: individual rats; for No. Ob. / Int. Latency: castrated 14 days earlier, testosterone 4 μg/100 g BW daily; for Int. Latency: in s
Text: (§1) The animal model -- All tested rats (Wistar derived from the departmental colony, Hormone Research Department, at the Weizmann Institute of Science), are sexually experienced male rats around 3 months of age (body weight ~250 g). At this age, the rats are castrated by removal of the testes and injected daily with testosterone for at least 14 consecutive days.
(§2) All rats (males and females) that take part in the experiment are kept in a 12-hour light 12-hour dark cycle. Prior to testing, each male is put in a separate cage for at least 1 hour. A sexually receptive female is introduced to each male. Females were tested for their receptivity by vaginal smearings. The latencies of mounts and intromissions are recorded.
6 rats, 120 days old, sexually experienced, were tested. The rats were castrated 14 days earlier and were injected with 4 μg/100 g BW of testosterone daily. […] All 6 materials were tested by topical application.

penile erection = conditions: injection; cited from earlier work
[2] = test system: sexual behaviour of male rats; experiment: Sexual behaviour of castrated, testosterone-treated male rats after intravenous injection (Table I); assay type: in vivo, rat; parameters: key to Ejaculations (E): E = Ejaculations
Text: as §1
as §2, with “recorded. […] Using castrated animals we achieved decreased sexual activity which is expressed by longer intervals between intromissions and less intromissions during the 15 min observation periods.” for “recorded.”
Initially, we tested a few VIP analogs by injection (intravenously 5-10 μg/animal). As a control we injected saline at identical volumes (5-10 μl).
Rats were castrated and injected daily for 15 consecutive days with testosterone at 4 μg/100 g body weight (BW). Tests were performed with stearyl-VIP or VIP at 10 μg/animal.

[3] = test system: sexual behaviour of male rats; experiment: Sexual behaviour of castrated male rats after topical application in DMSO (Table II); assay type: in vivo, rat; parameters: key to Ejaculations (E): E = Ejaculations; conditions: for Effect on sexual activity (words): compared with DMSO control
Text: as §1
as §2, with “recorded. […] Using castrated animals we achieved decreased sexual activity which is expressed by longer intervals between intromissions and less intromissions during the 15 min observation periods.” for “recorded.”
As we have obtained positive results with stearyl-VIP by injection we have now developed a topical application method. This was achieved by mixing 20 μl of 1 μg/ml VIP-stearyl with 10 μl dimethyl sulfoxide (DMSO) and direct topical application on the sex organ.
Rats were castrated and injected daily for 16 consecutive days with testosterone at 2 μg/100 g BW. Testing was performed by topical application of stearyl-VIP-20 μg/20 μl mixed with 10 μl DMSO and compared to topical application of 30 μl DMSO.

[4] = test system: sexual behaviour of male rats; experiment: Sexual behaviour of male rats after topical application of ointment (Table IV); assay type: in vivo; conditions: ointment applied onto the rat's penis
Text: as §1
as §2, with “recorded. […] Using castrated animals we achieved decreased sexual activity which is expressed by longer intervals between intromissions and less intromissions during the 15 min observation periods.” for “recorded.”
Preparation of Ointment -- Lanolin (1 g), water (3 g) DMSO (7 drops) and 10 mg of stearyl-VIP were manually homogenized in a mortar. An amount of paste, containing 30-50 μg peptide was applied onto the rat's penis and sexual behaviour, following the methodology previously described, was monitored.
(B) Using the same protocol as in (A) an ointment of VIP-oleyl was prepared and tested.

[5] = individual castrated rats, testosterone 4 μg/100 g BW daily 15 days, injection 10 μg/animal, listed as VIP stearyl

With `CCCCCCCCCCCCCCCCCC(=O)O` [Stearic acid, reference compound] the “Ejaculations (E)” value [1] was “E”, the “No. Ob.” value [1] was 19 and 21 and the “Int. Latency” value [1] was 26 ± 1 and 18 ± 3 and 36 ± 2.
For `CC(COc1ccccc1)N(CCCl)Cc1ccccc1` (stereo not drawn) [phenoxybenzamine], the Erection (penile erection) is listed as “Erection was also obtained”.
For Stearyl-VIP, the Intromission latency [2, 5] was 17 ± 3 s and 28 ± 7 s and 50 ± 17 s and 33 ± 6 s and 37 ± 6 s and 56 ± 8 s and 45 ± 7 s, the “Obs. = Number of intromissons per 15 minute test period” value [2, 5] was 7 and 4 and 12 and 20 and 14 and 6 and the “Ejaculations (E)” value ([2]; individual castrated rats, injection 10 μg/animal) was “E”. The “Effect on sexual activity (words)” value ([2]; injection) was “potentiates sexual activity in a comparable manner to VIP”, the “Obs. (number of intromissions)” value ([3]; individual castrated rats, testosterone 2 μg/100 g BW daily 16 days, topical 20 μg/20 μl mixed with 10 μl DMSO) was 21 and 14 and 10 and 3 and 11 and 25 and the Intromission latency ([3]; individual castrated rats, testosterone 2 μg/100 g BW daily 16 days, topical 20 μg/20 μl mixed with 10 μl DMSO, in s) was 23 ± 4 and 29 ± 4 and 32 ± 8 and 16 ± 3 and 38 ± 10 and 18 ± 7 and 24 ± 4. For the same compound, the “Ejaculations (E)” value ([3]; individual castrated rats, topical in DMSO) was “E”, the “Effect on sexual activity (words)” value ([3]; topical in DMSO) was “remarkable sexual arousal” and the “Effect on sexual activity (words)” value ([3]; topical in DMSO, listed as StearylVIP) was “rats B2 and A3 were sexually active only after”. For the same compound, the “Activity upon topical application” value [1] was “the most active analog”, the Change in latency ([1]; 6 rats) was “shortening of latency” and the “Change in number of ejaculations” value ([1]; 6 rats) was “clear increase in the number of ejaculations”. The “Change in number of intromissions” value ([1]; 6 rats) was “increase in number of intromissions”, the “Ejaculations (E)” value [1] was “E” and the “No. Ob.” value [1] was 6 and 28 and 20 and 49 and 31. For the same compound, the “Int. Latency” value [1] was 66 ± 15 and 18 ± 3 and 18 ± 2 and 12 ± 3 and 26 ± 1, the “Decrease (shortening) in intromission latency” value [4] was “about 25%” and the Increase in ejaculations [4] was “two-fold”.
With “VIP-oleyl: VIP coupled to an oleyl moiety, tested as an ointment (HSDAVFTDNYTRLRKQMAVKKYLNSILN-{NH-oleyl}; ends and bridges not checked; UniProt P01282 125-152, looked up)” the “Decrease (shortening) in intromission latency” value [4] was ~ 10% and the Increase in ejaculations [4] was “increased, though much less than stearyl-VIP”.
